Results: publication PMC5668925 (Biochemistry and Biophysics Reports, 2015)
Like-named read-outs stand apart in the source and are kept apart here. Blank lines part the entries; values can stand above or below the molecule they belong to.

How the values were obtained:
[1] = biological target: T1, NCT (N- and C-terminal truncated trehalase) (Spodoptera frugiperda, UniProt Q0ZIF5, C-[…]/DEL1-102/LAST/RESIDUES/[…]); experiment: glucose release assay, Lineweaver-Burk slope replots; format: biochemical
T1 sequence (Q0ZIF5 126-556): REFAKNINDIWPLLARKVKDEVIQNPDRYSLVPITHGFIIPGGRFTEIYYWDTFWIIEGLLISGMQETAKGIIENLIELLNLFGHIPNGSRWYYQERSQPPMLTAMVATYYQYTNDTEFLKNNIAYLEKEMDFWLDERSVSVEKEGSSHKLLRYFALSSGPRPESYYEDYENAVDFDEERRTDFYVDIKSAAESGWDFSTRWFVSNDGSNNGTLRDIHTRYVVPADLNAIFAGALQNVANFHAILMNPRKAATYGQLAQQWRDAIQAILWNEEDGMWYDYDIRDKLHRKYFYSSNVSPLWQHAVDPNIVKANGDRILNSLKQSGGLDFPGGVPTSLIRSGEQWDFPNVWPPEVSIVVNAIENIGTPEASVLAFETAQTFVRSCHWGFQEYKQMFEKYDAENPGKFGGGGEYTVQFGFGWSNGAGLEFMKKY

[2] = biological target: T2, WT (SfTre1, S. frugiperda midgut soluble trehalase, recombinant) (Spodoptera frugiperda, UniProt Q0ZIF5); experiment: as above; format: biochemical
T2 sequence (Q0ZIF5 24-587): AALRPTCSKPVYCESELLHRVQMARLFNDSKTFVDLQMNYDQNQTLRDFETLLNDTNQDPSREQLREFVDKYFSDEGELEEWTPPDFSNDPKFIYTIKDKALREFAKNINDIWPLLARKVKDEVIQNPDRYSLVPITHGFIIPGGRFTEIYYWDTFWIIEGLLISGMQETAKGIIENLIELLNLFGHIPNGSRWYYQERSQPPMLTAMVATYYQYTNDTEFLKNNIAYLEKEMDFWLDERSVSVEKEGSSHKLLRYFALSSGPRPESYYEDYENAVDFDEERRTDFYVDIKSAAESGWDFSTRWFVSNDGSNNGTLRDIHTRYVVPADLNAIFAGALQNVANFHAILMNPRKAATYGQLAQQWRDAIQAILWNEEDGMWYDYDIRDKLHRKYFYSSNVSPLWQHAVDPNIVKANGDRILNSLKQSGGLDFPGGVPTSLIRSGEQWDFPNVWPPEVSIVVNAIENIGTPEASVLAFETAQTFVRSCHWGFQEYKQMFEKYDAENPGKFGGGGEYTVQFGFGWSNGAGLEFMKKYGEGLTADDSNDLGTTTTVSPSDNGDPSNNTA

[3] = biological target: T2, WT (SfTre1, S. frugiperda midgut soluble trehalase, recombinant); experiment: as above; format: biochemical; remark: listed apart in the source
[4] = biological target: T1, NCT (N- and C-terminal truncated trehalase); experiment: as above; format: biochemical; remark: listed apart in the source
[5] = biological target: T3, NT (N-terminal truncated trehalase) (Spodoptera frugiperda, UniProt Q0ZIF5, DEL1-102); experiment: as above; format: biochemical
T3 sequence (Q0ZIF5 126-587): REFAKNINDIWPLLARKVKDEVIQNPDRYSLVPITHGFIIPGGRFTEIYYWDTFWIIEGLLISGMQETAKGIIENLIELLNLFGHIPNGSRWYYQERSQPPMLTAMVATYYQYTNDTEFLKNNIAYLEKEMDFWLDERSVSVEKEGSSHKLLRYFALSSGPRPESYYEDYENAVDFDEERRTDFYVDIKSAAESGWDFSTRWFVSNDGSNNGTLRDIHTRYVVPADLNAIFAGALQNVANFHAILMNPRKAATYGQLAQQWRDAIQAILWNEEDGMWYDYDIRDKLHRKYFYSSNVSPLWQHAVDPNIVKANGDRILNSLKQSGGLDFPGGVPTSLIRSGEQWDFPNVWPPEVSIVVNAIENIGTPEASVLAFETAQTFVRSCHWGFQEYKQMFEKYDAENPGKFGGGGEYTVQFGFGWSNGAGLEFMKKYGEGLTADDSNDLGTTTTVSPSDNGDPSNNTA

[6] = biological target: T4, NCT (N- and C-terminal truncated trehalase) (Spodoptera frugiperda, UniProt Q0ZIF5); experiment: as above; format: biochemical; conditions: read-out: Enzyme / NCT; competitive; substrate trehalose 0.2-2 mM; pH 6.0, 30 °C
T4 sequence (Q0ZIF5 126-556): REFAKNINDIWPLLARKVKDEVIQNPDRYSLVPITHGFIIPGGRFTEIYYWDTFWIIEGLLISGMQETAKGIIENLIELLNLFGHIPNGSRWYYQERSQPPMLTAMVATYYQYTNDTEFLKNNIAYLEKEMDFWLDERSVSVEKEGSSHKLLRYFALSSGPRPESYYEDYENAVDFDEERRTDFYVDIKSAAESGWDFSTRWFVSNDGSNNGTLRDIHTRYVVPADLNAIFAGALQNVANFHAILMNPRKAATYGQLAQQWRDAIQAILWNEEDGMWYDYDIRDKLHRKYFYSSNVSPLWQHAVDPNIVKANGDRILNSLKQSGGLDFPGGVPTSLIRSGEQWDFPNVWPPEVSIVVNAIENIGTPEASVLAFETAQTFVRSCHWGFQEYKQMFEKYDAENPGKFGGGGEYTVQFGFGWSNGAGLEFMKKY

[7] = biological target: T5, NT (N-terminal truncated trehalase) (Spodoptera frugiperda, UniProt Q0ZIF5); experiment: as above; format: biochemical; conditions: read-out: Enzyme / NT; competitive; substrate trehalose 0.2-2 mM; pH 6.0, 30 °C
T5 sequence (Q0ZIF5 126-587): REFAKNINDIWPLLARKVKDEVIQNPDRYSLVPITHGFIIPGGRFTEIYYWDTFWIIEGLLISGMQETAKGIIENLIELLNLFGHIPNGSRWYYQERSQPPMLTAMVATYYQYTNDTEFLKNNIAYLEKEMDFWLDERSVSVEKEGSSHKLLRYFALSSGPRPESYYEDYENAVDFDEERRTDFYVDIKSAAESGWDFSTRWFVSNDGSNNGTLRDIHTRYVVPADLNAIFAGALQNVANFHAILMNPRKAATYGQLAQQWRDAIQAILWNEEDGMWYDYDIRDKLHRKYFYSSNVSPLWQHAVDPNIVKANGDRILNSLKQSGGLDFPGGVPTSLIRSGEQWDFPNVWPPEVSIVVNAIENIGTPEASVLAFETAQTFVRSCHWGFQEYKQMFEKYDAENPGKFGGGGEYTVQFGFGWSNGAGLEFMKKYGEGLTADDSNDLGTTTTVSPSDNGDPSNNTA

purified protein = substrate: OC[C@H]1O[C@H](O[C@H]2O[C@H](CO)[C@@H](O)[C@H](O)[C@H]2O)[C@H](O)[C@@H](O)[C@@H]1O; experiment: purified protein; conditions: pH 6.0 citrate-sodium phosphate, 30 °C

Molecule: N#C[C@H](O[C@@H]1O[C@H](CO[C@@H]2O[C@H](CO)[C@@H](O)[C@H](O)[C@H]2O)[C@@H](O)[C@H](O)[C@H]1O)c1ccccc1 [amygdalin]
Ki [3]: 280 ± 70 µM
Ki [4]: 490 ± 90 µM
Ki [5]: 400 ± 100 µM

B1: WT (SfTre1, S. frugiperda midgut soluble trehalase, recombinant) (Spodoptera frugiperda) (protein)
chain: AALRPTCSKPVYCESELLHRVQMARLFNDSKTFVDLQMNYDQNQTLRDFETLLNDTNQDPSREQLREFVDKYFSDEGELEEWTPPDFSNDPKFIYTIKDKALREFAKNINDIWPLLARKVKDEVIQNPDRYSLVPITHGFIIPGGRFTEIYYWDTFWIIEGLLISGMQETAKGIIENLIELLNLFGHIPNGSRWYYQERSQPPMLTAMVATYYQYTNDTEFLKNNIAYLEKEMDFWLDERSVSVEKEGSSHKLLRYFALSSGPRPESYYEDYENAVDFDEERRTDFYVDIKSAAESGWDFSTRWFVSNDGSNNGTLRDIHTRYVVPADLNAIFAGALQNVANFHAILMNPRKAATYGQLAQQWRDAIQAILWNEEDGMWYDYDIRDKLHRKYFYSSNVSPLWQHAVDPNIVKANGDRILNSLKQSGGLDFPGGVPTSLIRSGEQWDFPNVWPPEVSIVVNAIENIGTPEASVLAFETAQTFVRSCHWGFQEYKQMFEKYDAENPGKFGGGGEYTVQFGFGWSNGAGLEFMKKYGEGLTADDSNDLGTTTTVSPSDNGDPSNNTA
kcat/Km (purified protein): 74500 M⁻¹ s⁻¹

Results, then the molecule that gave them:

Ki [1]: 0.8 ± 0.2 µM
Ki [2]: 1 ± 0.24 µM
Molecule: OC[C@H]1NC[C@H](O)[C@@H](O)[C@@H]1O [1-deoxynojirimycin]

Ki [6]: 16000 ± 1000 µM
Ki ([2]; read-out: Enzyme / WT, competitive, substrate trehalose 0.2-2 mM, pH 6.0, 30 °C): 17000 ± 1000 µM
Ki [7]: 17000 ± 2000 µM
Molecule: COC1OC(CO)C(O)C(O)C1O (stereo not drawn) [methyl α-mannoside]
